Assay results from US20260201420A1, “HOMOLOGY-INDEPENDENT TARGETED DNA INSERTION IN HUMAN T CELLS” (The Board of Trustees of The Leland Stanford Junior …, priority 2022, published 2026).

What was measured:
primary human T cells [1] = assay: HDR inhibitor (AZD0156) modulation of GD2-CAR integration via HITI and HDR; format: cell-based
Protocol: (§1) Fresh Leukopaks were obtained from STEMCELL Technologies and processed for negative selection using the EasySep Human T Cell Isolation Kit. Cells were activated using Dynabeads Human T-Activator CD3/CD28 (Thermo Fisher) at a 1:1 ratio and cultivated in TexMACS media supplemented with human IL-7 at 12.5 ng/ml and IL-15 at 12.5 ng/ml (all Miltenyi Biotec) as well as 3% human male AB Serum (Access Cell Culture). The culture volume was expanded over time to maintain cells at a concentration of ^~1.5×10^6/ml using G-Rex 24-well and 6-well plates or G-Rex 100M according to manufacturer's instructions (Wilson-Wolf). Small molecule inhibitors AZD0156 (Selleck Chemicals) and Methotrexate (Sigma Aldrich) were resuspended in DMSO and added to the cell culture media as indicated.
On day 2, unless otherwise indicated, Dynabeads were magnetically removed and cells were counted prior to electroporation on the Maxcyte GTx. For electroporation cells were washed once in Electroporation Buffer (Maxcyte) and then resuspended at 2×10^8/ml for small scale experiments or in 2.4 ml for large-scale electroporation. Wildtype Cas9 (61 μM, IDT) and sgRNA (125 μM, IDT) were mixed vol 1:1 resulting in a molar ratio of 2:1 and incubated for 10 min. at room temperature. Hereafter indicated amounts of plasmid DNA (3 mg/ml) were added to the RNP and incubated for at least 10 min. to allow the RNP to cut the plasmid DNA. For small-scale experiments 5×10^6 T cells were resuspended in 25 μl and 1.25 μl of RNP and respective amounts of plasmid DNA were added. Cells were then transferred into OC-25×3 processing assemblies and electroporated using the Expanded T cell 4 protocol for activated T cells or the Resting T cell 14-3 protocol for electroporation of non-activated T cells, which were stimulated after electroporation with Dynabeads at a 1:1 ratio. Small scale experiments for GPC2 CAR knock-in were conducted using the OC100×2 processing assembly with a final reaction volume of 100 μl. For large scale experiments the GMP compatible CL1.1 assembly was used. […]

primary human T cells [2] = assay: Titration of MTX in primary human T cells; format: cell-based
Protocol: as §1
To enable enrichment of the desired CAR+ knock-in population we optimized CEMENT based selection by comparing three different clinically relevant enrichment markers: Dihydrofolate Reductase^L22F/F31S (DHFR-FS), truncated Epidermal Growth Factor Receptor (tEGFR), and truncated Nerve Growth Factor Receptor (tNGFR)^9,17,33. All three enrichment markers were successfully co-inserted along with the GD2-CAR resulting in total transgene sizes of ^~2.5-3 kb. CRISPR knock-in CAR-T cells were either enriched using the FDA approved drug MTX which was diluted from a 10 mM stock in media to result in a 50 nM final concentration. […]

primary human T cells [3] = assay: HITI/CEMENT knock-in CAR-T cell manufacturing at clinical scale; format: cell-based; settings: end of MTX treatment (day 7), 50 nM
Protocol: as §1
On day 2, unless otherwise indicated, Dynabeads were magnetically removed and cells were counted prior to electroporation on the Maxcyte GTx. For electroporation cells were washed once in Electroporation Buffer (Maxcyte) and then resuspended at 2×10^8/ml for small scale experiments or in 2.4 ml for large-scale electroporation. […]
Cell counts and Viability were obtained using the Nexcelom Cellometer Auto 2000. Samples were mixed with AO/PI dye at a 1:1 volume ratio and then analyzed using the setting Immune Cells—Low RBC. […]

TRAC = assay: IN&OUT PCR and Sanger sequencing of knock-in junctions; design: species or system human; settings: IN&OUT PCR, Sanger sequencing
Protocol: Genomic DNA was extracted using the PureLink Genomic DNA Mini Kit (Invitrogen). Primers flanking the insertion sites of HITI1c and binding outside the respective homology arm sequence of HDR2c as well as primers binding within the inserted sequences were designed using Primer3Plus (www.primer3plus.com). Phusion Hot Start Flex 2× Mastermix (NEB) was used to amplify genomic regions of interest and DNA gel electrophoresis was conducted using the E-Gel Power Snap System (Thermo Scientific). Samples were shipped to ELIM BIOPHARM for Sanger sequencing. Sequences were aligned for analysis using snapgene.

primary human T cells [4] = assay: CRISPR knock-in of GD2-CAR into TRAC in activated T cells (HDR vs HITI plasmid templates), flow cytometry and cell counts; format: cell-based; settings: for knock-in frequencies (mean frequencies): GD2-CAR into TRAC, activated T cells electroporated day 2, flow cytometry day 10, n=4 donors
Protocol: as §1
Plasmid DNA was optimized for gene therapeutic application and consisted of two components: R6K origin of replication and an anti-Levansucrase antisense RNA to allow for an antibiotic-free selection. This ^~430 bp backbone prevents transgene silencing after genomic insertion^40,43,44. Knock-In templates were synthesized at Genscript and flanking cut sites for NheI and KpnI were used to clone synthetic genes into plasmid backbones. To introduce RNP cut sites within the plasmid DNA, the genomic target of the respective RNP was included into the above mentioned synthetic gene.
(§2) On day 2, unless otherwise indicated, Dynabeads were magnetically removed and cells were counted prior to electroporation on the Maxcyte GTx. For electroporation cells were washed once in Electroporation Buffer (Maxcyte) and then resuspended at 2×10^8/ml for small scale experiments or in 2.4 ml for large-scale electroporation. Wildtype Cas9 (61 μM, IDT) and sgRNA (125 μM, IDT) were mixed vol 1:1 resulting in a molar ratio of 2:1 and incubated for 10 min. at room temperature. Hereafter indicated amounts of plasmid DNA (3 mg/ml) were added to the RNP and incubated for at least 10 min. to allow the RNP to cut the plasmid DNA. For small-scale experiments 5×10^6 T cells were resuspended in 25 μl and 1.25 μl of RNP and respective amounts of plasmid DNA were added. Cells were then transferred into OC-25×3 processing assemblies and electroporated using the Expanded T cell 4 protocol for activated T cells or the Resting T cell 14-3 protocol for electroporation of non-activated T cells, which were stimulated after electroporation with Dynabeads at a 1:1 ratio. Small scale experiments for GPC2 CAR knock-in were conducted using the OC100×2 processing assembly with a final reaction volume of 100 μl. For large scale experiments the GMP compatible CL1.1 assembly was used. Post electroporation cells were rested in electroporation buffer either in the processing assembly (OC-25×3, OC-100×2) or in G-Rex 6-well plates (CL1.1) for 30 min. before being transferred into final G-Rex vessels.
(§3) Cell counts and Viability were obtained using the Nexcelom Cellometer Auto 2000. Samples were mixed with AO/PI dye at a 1:1 volume ratio and then analyzed using the setting Immune Cells—Low RBC.
(§4) For GD2-CAR and GPC2-CAR detection, an anti-14g2a idiotype or recombinant human Glypican-2 protein (R&D systems) were fluorescently labeled with the DyLight 650 Microscale Antibody Labeling kit (Thermo Fisher). For intracellular staining CAR+ T cells were co-cultured with respective tumor cell lines at a 1:4 ratio. Prior to co-cultivation the protein transport inhibitor Monensin (BD) and the anti-CD107a antibody (Biolegend) were added to T cell samples. […]

non-activated T cells = assay: CRISPR knock-in of GD2-CAR in non-activated T cells; format: cell-based, human; settings: HITI1c vs HDR2c, day 10
Protocol: as §2, §3
as §4, with “ratio.” for “ratio. Prior to co-cultivation the protein transport inhibitor Monensin (BD) and the anti-CD107a antibody (Biolegend) were added to T cell samples.”

CN(C)CCCOc1ccc(-c2ccc3ncc4c(c3c2)n(C2CCOCC2)c(=O)n4C)cn1 [AZD0156]
knock-in efficiency of HDR2c when AZD0156 was added (primary human T cells [1]; HDR2c template, 18 hours treatment post electroporation, vs untreated): decreased knock-in efficiency | insertion rates for HITI1c when AZD0156 was added (primary human T cells [1]; HITI1c template, 18 hours treatment post electroporation, vs untreated): higher insertion rates | GD2-CAR T cell yields in HITI1c samples after AZD0156 treatment (primary human T cells [1]; compared to untreated controls): decreased GD2-CAR T cell yields

CN(Cc1cnc2nc(N)nc(N)c2n1)c1ccc(C(=O)N[C@@H](CCC(=O)O)C(=O)O)cc1 [MTX, methotrexate]
concentration from which efficient killing occurs (primary human T cells [2]; n=2 donors, technical duplicates): ≥ 50 nM | concentration at which MTX exerts cytostatic effects in dividing T cells (primary human T cells [2]; primary human T cells post activation): 50 nM | effects of MTX on viability of edited vs. non-edited T cells (primary human T cells [3]): only non-edited cells were compromised in their viability

HITI1c: Knock-In template plasmid, one cut site: cut_site-EFS-Signalpeptide-14g2a-CD8TM-4-1BB-CD3z-STOP-bGH_ployA (SEQ ID NO: 3)
Indels at both junctions of integrated plasmid construct (TRAC): 6 bp | knock-in frequencies (mean frequencies) (primary human T cells [4]): 15.7% | GD2-CAR T cell yields, HITI vs HDR (primary human T cells [4]; HITI1c vs HDR2c, day 10, average): ~ 3 fold | GD2-CAR T cell yield, one cut site vs two cut sites (primary human T cells [4]; HITI1c vs HITI2c, day 10): ~ 6 fold | insertion rates, HITI1c vs HDR2c (primary human T cells [4]; activated T cells, day 10): comparable | CAR+ T cell yield in non-activated T cells (non-activated T cells): higher | insertion rates in non-activated T cells (non-activated T cells): higher | viability in non-activated T cells (non-activated T cells): higher

HITI2c: Knock-In template plasmid, two cut sites: cut_site-EFS-Signalpeptide-14g2a-CD8TM-4-1BB-CD3z-STOP-bGH_ployA-cut_site (SEQ ID NO: 4)
knock-in frequencies (mean frequencies) (primary human T cells [4]): 9.3%
